Here are results for 5 compounds from patent US8133901B2, “3-heteroaryl (amino or amido)-1-(biphenyl or phenylthiazolyl) carbonylpiperidine derivatives as orexin receptor inhibitors” (Actelion Pharmaceuticals Ltd., priority 2006, dated 2012).

In experiment [1] the target is T1, human orexin-1 receptor (Homo sapiens, UniProt O43613).
T1 construct: expressed in transfected cells; host or cells: CHO cells (G418 selection)
T1 sequence (O43613 1-425): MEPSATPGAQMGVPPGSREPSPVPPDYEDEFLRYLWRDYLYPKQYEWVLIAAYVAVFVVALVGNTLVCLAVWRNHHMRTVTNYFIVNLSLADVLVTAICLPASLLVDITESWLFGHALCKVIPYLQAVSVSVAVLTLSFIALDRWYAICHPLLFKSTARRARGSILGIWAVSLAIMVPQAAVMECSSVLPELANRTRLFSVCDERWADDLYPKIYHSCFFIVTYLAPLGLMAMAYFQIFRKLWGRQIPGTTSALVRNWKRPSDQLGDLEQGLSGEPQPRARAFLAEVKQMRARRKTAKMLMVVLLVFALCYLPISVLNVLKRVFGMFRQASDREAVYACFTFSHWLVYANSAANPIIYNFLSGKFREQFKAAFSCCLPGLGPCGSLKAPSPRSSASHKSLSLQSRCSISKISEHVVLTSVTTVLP
In words: Intracellular calcium measurements (FLIPR), orexin receptor antagonistic activity, OX1. The format is cell-based. Particulars: CHO cells expressing the human orexin-1 receptor; 10 nM orexin-A as agonist; fluo-3 calcium signal. The protocol:
(§1) The orexin receptor antagonistic activity of the compounds of formula (I) is determined in accordance with the following experimental method.
(§2) Chinese hamster ovary (CHO) cells expressing the human orexin-1 receptor and the human orexin-2 receptor, respectively, are grown in culture medium (Ham F-12 with L-Glutamine) containing 300 μg/ml G418, 100 U/ml penicillin, 100 μg/ml streptomycin and 10% inactivated fetal calf serum (FCS). The cells are seeded at 80′000 cells/well into 96-well black clear bottom sterile plates (Costar) which have been precoated with 1% gelatine in Hanks' Balanced Salt Solution (HBSS). All reagents are from Gibco BRL. The seeded plates are incubated overnight at 37° C. in 5% CO2.
(§3) Human orexin-A as an agonist is prepared as 1 mM stock solution in methanol:water (1:1), diluted in HBSS containing 0.1% bovine serum albumin (BSA) and 2 mM HEPES for use in the assay at a final concentration of 10 nM.
(§4) Antagonists are prepared as 10 mM stock solution in DMSO, then diluted in 96-well plates, first in DMSO, then in HBSS containing 0.1% bovine serum albumin (BSA) and 2 mM HEPES.
(§5) On the day of the assay, 100 μl of loading medium (HBSS containing 1% FCS, 2 mM HEPES, 5 mM probenecid (Sigma) and 3 μM of the fluorescent calcium indicator fluo-3 AM (1 mM stock solution in DMSO with 10% pluronic acid) (Molecular Probes) is added to each well.
(§6) The 96-well plates are incubated for 60 min at 37° C. in 5% CO2. The loading solution is then aspirated and cells are washed 3 times with 200 μl HBSS containing 2.5 mM probenecid, 0.1% BSA, 2 mM HEPES. 100 μl of that same buffer is left in each well.
(§7) Within the Fluorescent Imaging Plate Reader (FLIPR, Molecular Devices), antagonists are added to the plate in a volume of 50 μl, incubated for 20 min and finally 100 μl of agonist is added. Fluorescence is measured for each well at 1 second intervals, and the height of each fluorescence peak is compared to the height of the fluorescence peak induced by 10 nM orexin-A with buffer in place of antagonist. For each antagonist, IC50 value (the concentration of compound needed to inhibit 50% of the agonistic response) is determined.

The target in experiment [2] is T2, human orexin-2 receptor (Homo sapiens, UniProt O43614).
T2 construct: expressed in transfected cells; host or cells: CHO cells (G418 selection)
T2 sequence (O43614 1-444): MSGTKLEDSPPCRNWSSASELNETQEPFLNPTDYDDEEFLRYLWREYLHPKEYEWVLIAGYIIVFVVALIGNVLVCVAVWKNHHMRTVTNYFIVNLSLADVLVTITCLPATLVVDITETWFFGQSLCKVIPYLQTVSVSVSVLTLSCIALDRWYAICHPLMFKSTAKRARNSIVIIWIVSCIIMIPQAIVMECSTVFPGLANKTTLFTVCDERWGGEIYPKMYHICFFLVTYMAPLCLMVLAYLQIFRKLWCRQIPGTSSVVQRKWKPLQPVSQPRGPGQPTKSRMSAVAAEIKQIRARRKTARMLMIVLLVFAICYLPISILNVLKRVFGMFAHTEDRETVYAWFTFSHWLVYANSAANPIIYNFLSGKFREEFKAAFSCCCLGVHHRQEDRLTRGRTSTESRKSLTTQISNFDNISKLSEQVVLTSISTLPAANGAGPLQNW
Nature of the experiment: Intracellular calcium measurements (FLIPR), orexin receptor antagonistic activity, OX2. The format is cell-based. As to conditions: CHO cells expressing the human orexin-2 receptor; 10 nM orexin-A as agonist; fluo-3 calcium signal. The protocol: as §1, §2, §3, §4, §5, §6, §7

One may read the pIC50 as the negative decadic logarithm of the IC50, by convention in mol/L.

pIC50: −log10 of the molar value.

As to `Cc1nc(C(=O)N2CCC[C@@H](NC(=O)c3c(C)nc4sccn34)C2)c(-c2ccccc2F)s1` [Example 15, (R)-6-Methyl-imidazo[2,1-b]thiazole-5-carboxylic acid{1-[5-(2-fluoro-phenyl)-2-methyl-thiazole-4-carbonyl]-piperidin-3-yl}-amide], the negative logarithm of the IC50 (pIC50) in experiment [1] is 7.19; in experiment [2], 7.01.

`O=C(c1ccccc1-c1ccccc1)N1CCC[C@@H](Nc2ncc(Br)cn2)C1` [Example 1, (R)-Biphenyl-2-yl-[3-(5-bromo-pyrimidin-2-ylamino)-piperidin-1-yl]-methanone]: the figures for the pIC50 in experiment [1] and in experiment [2] were 6.53 and 6.41, respectively.

Consider `Cc1cccc(-c2sc(C)nc2C(=O)N2CCC[C@@H](NC(=O)c3c(C)nc4sccn34)C2)c1` [Example 7, (R)-6-Methyl-imidazo[2,1-b]thiazole-5-carboxylic acid[1-(2-methyl-5-m-tolyl-thiazole-4-carbonyl)-piperidin-3-yl]-amide], for which the results for the negative-log IC50 (pIC50) in experiment [1] and in experiment [2] were 7.57 and 7.30, respectively.

As to `Cc1ccc(-c2sc(C)nc2C(=O)N2CCC[C@@H](NC(=O)c3c(C)nc4sccn34)C2)cc1` [Example 9, (R)-6-Methyl-imidazo[2,1-b]thiazole-5-carboxylic acid[1-(2-methyl-5-p-tolyl-thiazole-4-carbonyl)-piperidin-3-yl]-amide], the values for the pIC50 in experiment [1] and in experiment [2] were 7.00 and 6.78, respectively.

With `O=C(c1ccccc1-c1ccccc1F)N1CCC[C@@H](Nc2ncc(Br)cn2)C1` [Example 3, (R)-[3-(5-Bromo-pyrimidin-2-ylamino)-piperidin-1-yl]-(2′-fluoro-biphenyl-2-yl)-methanone], the values for the negative-log IC50 (pIC50) in experiment [1] and in experiment [2] were 7.09 and 6.77, respectively.
